Measured values reported in PubChem BioAssay AID2060612 (Molecular Pharmacology Branch, DTP, NCI, 2025).
Several values for one entry are separate records, joined by “and”; a condition that tells them apart may be missing. Equal entries are not always repeated.

Tested on: 565232-114-T-J1-PDC complex spheroid viability
Test: Anticancer human tumor 565232-114-T-J1-PDC patient-derived bladder carcinoma cell line growth inhibition [CLK]
Conditions: for viability, T/C: stronger effect = lower value; active = viability on the fitted dose curve at most 10% of control; inactive = the rest
Method in brief: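 Patient-derived tumor cells grown as complex spheroids with HUVEC endothelial cells and mesenchymal stem cells, treated with drug combinations. Concentrations descend in half-log steps from near clinical Cmax, or from 10 microM if Cmax unknown.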

[1] = curve of first compound, second compound 0.0316 µM
[2] = curve of first compound, second compound 0.1 µM
[3] = curve of first compound, second compound 0.316 µM
[4] = curve of first compound, second compound 1 µM
[5] = curve of first compound, second compound 3.16 µM
[6] = curve of first compound, second compound 10 µM
[7] = second compound 0.0316 µM, first compound 0.0316 µM
[8] = second compound 0.0316 µM, first compound 0.1 µM
[9] = second compound 0.0316 µM, first compound 0.316 µM
[10] = second compound 0.0316 µM, first compound 1 µM
[11] = second compound 0.1 µM, first compound 0.0316 µM
[12] = second compound 0.1 µM, first compound 0.1 µM
[13] = second compound 0.1 µM, first compound 0.316 µM
[14] = second compound 0.1 µM, first compound 1 µM
[15] = second compound 0.316 µM, first compound 0.0316 µM
[16] = second compound 0.316 µM, first compound 0.1 µM
[17] = second compound 0.316 µM, first compound 0.316 µM
[18] = second compound 0.316 µM, first compound 1 µM
[19] = second compound 1 µM, first compound 0.0316 µM
[20] = second compound 1 µM, first compound 0.1 µM
[21] = second compound 1 µM, first compound 0.316 µM
[22] = second compound 1 µM, first compound 1 µM
[23] = second compound 3.16 µM, first compound 0.0316 µM
[24] = second compound 3.16 µM, first compound 0.1 µM
[25] = second compound 3.16 µM, first compound 0.316 µM
[26] = second compound 3.16 µM, first compound 1 µM
[27] = second compound 10 µM, first compound 0.0316 µM
[28] = second compound 10 µM, first compound 0.1 µM
[29] = second compound 10 µM, first compound 0.316 µM
[30] = second compound 10 µM, first compound 1 µM
[31] = second compound 0.0316 µM, first compound 0.00316 µM
[32] = second compound 0.0316 µM, first compound 0.01 µM
[33] = second compound 0.1 µM, first compound 0.00316 µM
[34] = second compound 0.1 µM, first compound 0.01 µM
[35] = second compound 0.316 µM, first compound 0.00316 µM
[36] = second compound 0.316 µM, first compound 0.01 µM
[37] = second compound 1 µM, first compound 0.00316 µM
[38] = second compound 1 µM, first compound 0.01 µM
[39] = second compound 3.16 µM, first compound 0.00316 µM
[40] = second compound 3.16 µM, first compound 0.01 µM
[41] = second compound 10 µM, first compound 0.00316 µM
[42] = second compound 10 µM, first compound 0.01 µM
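Note: spheroids exposed to compounds for 7 days before readout.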
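Throughout, for viability, T/C: 100% = DMSO vehicle wells with luminescence normalized to vehicle control.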

CC(CO)NC(=O)c1cc(-c2ccc(Cl)cc2)nn(-c2cnn(C)c2)c1=O (centres undefined) + CN1CCN(c2cc(C(=O)Nc3cc4cc(-c5cnn(C)c5)ccc4cn3)ccn2)CC1
< 31.6 nM: IC50 [3] | IC50 [4] | IC50 [5] | IC50 [6]
inactive: viability, T/C [7] 104% | viability, T/C [8] 73.7% | viability, T/C [9] 86.5% | viability, T/C [10] 86.2% | viability, T/C (second compound 0.0316 µM, first compound 3.16 µM) 93.7% | viability, T/C (second compound 0.0316 µM, first compound 10 µM) 103% | viability, T/C [11] 92% | viability, T/C [12] 91% | viability, T/C [13] 96.7% | viability, T/C [14] 89.7% | viability, T/C (second compound 0.1 µM, first compound 3.16 µM) 124% | viability, T/C (second compound 0.1 µM, first compound 10 µM) 120% | viability, T/C [15] 22.2% | viability, T/C [16] 21% | viability, T/C [17] 27.3% | viability, T/C [18] 23.4% | viability, T/C (second compound 0.316 µM, first compound 3.16 µM) 24.6% | viability, T/C (second compound 0.316 µM, first compound 10 µM) 26.9%
> 10000 nM: IC50 [1] | IC50 [2]
active: viability, T/C [19] 0.2% | viability, T/C [20] 2.31% | viability, T/C [21] 1.11% | viability, T/C [22] 0.21% | viability, T/C (second compound 1 µM, first compound 3.16 µM) 2.03% | viability, T/C (second compound 1 µM, first compound 10 µM) 3.08% | viability, T/C [23] 0.21% | viability, T/C [24] 0.65% | viability, T/C [25] 4.15% | viability, T/C [26] 0.22% | viability, T/C (second compound 3.16 µM, first compound 3.16 µM) 2.88% | viability, T/C (second compound 3.16 µM, first compound 10 µM) 2.53% | viability, T/C [27] 0.26% | viability, T/C [28] 0.28% | viability, T/C [29] 2.2% | viability, T/C [30] 1.23% | viability, T/C (second compound 10 µM, first compound 3.16 µM) 4.13% | viability, T/C (second compound 10 µM, first compound 10 µM) 3.6%

Cn1ncnc1[C@H]1c2n[nH]c(=O)c3cc(F)cc(c23)N[C@@H]1c1ccc(F)cc1 + CNC(=O)c1ccc(Nc2nc(OC3CCCC3)c3c(-c4ccc5nc(C)oc5c4)c[nH]c3n2)c(OC)c1
> 100 nM: IC50 [1]
< 0.316 nM: IC50 [2] | IC50 [3] | IC50 [4] | IC50 [5] | IC50 [6]
inactive: viability, T/C (second compound 0.0316 µM, first compound 0.000316 µM) 107% | viability, T/C (second compound 0.0316 µM, first compound 0.001 µM) 81.8% | viability, T/C [31] 94.9% | viability, T/C [32] 95% | viability, T/C [7] 84.8% | viability, T/C [8] 53.2% | viability, T/C (second compound 0.1 µM, first compound 0.000316 µM) 50% | viability, T/C (second compound 0.1 µM, first compound 0.001 µM) 44.4% | viability, T/C [33] 53.3% | viability, T/C [34] 43.6% | viability, T/C [11] 34.7% | viability, T/C [12] 23.3% | viability, T/C (second compound 0.316 µM, first compound 0.000316 µM) 31.4% | viability, T/C (second compound 0.316 µM, first compound 0.001 µM) 29.8% | viability, T/C [35] 30.4% | viability, T/C [36] 26.4% | viability, T/C [15] 25.7% | viability, T/C [16] 15.4% | viability, T/C (second compound 1 µM, first compound 0.000316 µM) 21.9% | viability, T/C (second compound 1 µM, first compound 0.001 µM) 22.3% | viability, T/C [37] 20% | viability, T/C [38] 16.9% | viability, T/C [19] 22.2% | viability, T/C [20] 15.7% | viability, T/C (second compound 3.16 µM, first compound 0.000316 µM) 12.3% | viability, T/C (second compound 3.16 µM, first compound 0.001 µM) 20.6% | viability, T/C [39] 18.7% | viability, T/C [40] 16.4% | viability, T/C [23] 20.2% | viability, T/C [24] 12.4% | viability, T/C (second compound 10 µM, first compound 0.000316 µM) 20.4% | viability, T/C (second compound 10 µM, first compound 0.001 µM) 16.1% | viability, T/C [41] 20.3% | viability, T/C [42] 19.5% | viability, T/C [27] 17.8% | viability, T/C [28] 11.4%

COc1ccc([C@@H](O)c2cc(-c3ncnc4cc(N5CCOCC5)ccc34)c(F)cc2Cl)nn1
inactive: viability, T/C (compound 0.0316 µM) 106% and 119% | viability, T/C (compound 0.1 µM) 88.3% and 115% | viability, T/C (compound 0.316 µM) 98.2% and 98.9% | viability, T/C (compound 1 µM) 102% and 77.9% | viability, T/C (compound 3.16 µM) 77.2% and 117% | viability, T/C (compound 10 µM) 99.1% and 81.8%
> 10000 nM: IC50 (curve of compound)

C=CC(=O)N1CCN(c2nc(=O)n(-c3c(C)ccnc3C(C)C)c3nc(-c4c(O)cccc4F)c(F)cc23)C(C)C1 (centres undefined)
inactive: viability, T/C (compound 0.0316 µM) 122% | viability, T/C (compound 0.1 µM) 82.7% | viability, T/C (compound 0.316 µM) 91.2% | viability, T/C (compound 1 µM) 97% | viability, T/C (compound 3.16 µM) 110% | viability, T/C (compound 10 µM) 111%
> 10000 nM: IC50 (curve of compound)

CCN1CCN(Cc2ccc(Nc3ncc(F)c(-c4cc(F)c5nc(C)n(C(C)C)c5c4)n3)nc2)CC1 + CN1CCN(c2cc(C(=O)Nc3cc4cc(-c5cnn(C)c5)ccc4cn3)ccn2)CC1
> 1000 nM: IC50 [1] | IC50 [2]
active: viability, T/C [37] 0.26% | viability, T/C [38] 0.27% | viability, T/C [19] 0.3% | viability, T/C [20] 0.29% | viability, T/C [21] 1.31% | viability, T/C [22] 2.37% | viability, T/C [39] 0.2% | viability, T/C [40] 0.22% | viability, T/C [23] 0.96% | viability, T/C [24] 0.16% | viability, T/C [25] 0.25% | viability, T/C [26] 0.35% | viability, T/C [41] 0.18% | viability, T/C [42] 0.2% | viability, T/C [27] 0.5% | viability, T/C [28] 0.16% | viability, T/C [29] 0.21% | viability, T/C [30] 1.34%
< 3.16 nM: IC50 [3] | IC50 [4] | IC50 [5] | IC50 [6]
inactive: viability, T/C [31] 116% | viability, T/C [32] 82.1% | viability, T/C [7] 98.7% | viability, T/C [8] 92.8% | viability, T/C [9] 113% | viability, T/C [10] 123% | viability, T/C [33] 88.1% | viability, T/C [34] 90.2% | viability, T/C [11] 89% | viability, T/C [12] 103% | viability, T/C [13] 116% | viability, T/C [14] 113% | viability, T/C [35] 15.5% | viability, T/C [36] 24.7% | viability, T/C [15] 23.2% | viability, T/C [16] 29.1% | viability, T/C [17] 42.4% | viability, T/C [18] 61.1%

COC1C=CCC(C)C(C)S(=O)(=O)NC(=O)c2ccc3c(c2)N(CC2CCC21)CC1(CCCc2cc(Cl)ccc21)CO3 (centres undefined)
inactive: viability, T/C (compound 0.0316 µM) 93.3% | viability, T/C (compound 0.1 µM) 92.9% | viability, T/C (compound 0.316 µM) 79.9% | viability, T/C (compound 1 µM) 21%
active: viability, T/C (compound 3.16 µM) 6.86% | viability, T/C (compound 10 µM) 3.28%
568 nM: IC50 (curve of compound)

CCc1c2c(nc3ccc(O)cc13)-c1cc3c(c(=O)n1C2)COC(=O)[C@]3(O)CC
active: viability, T/C (compound 1 µM) 5.24% and 1.76%
18.8% and 5.03%: viability, T/C (compound 0.316 µM)
65.5 nM and 18.9 nM: IC50 (curve of compound)
inactive: viability, T/C (compound 0.00316 µM) 91.1% and 106% | viability, T/C (compound 0.01 µM) 76.9% and 89.2% | viability, T/C (compound 0.0316 µM) 66.4% and 18%

CC(CO)NC(=O)c1cc(-c2ccc(Cl)cc2)nn(-c2cnn(C)c2)c1=O (centres undefined)
> 10000 nM: IC50 (curve of compound)
inactive: viability, T/C (compound 0.0316 µM) 97.3% and 115% | viability, T/C (compound 0.1 µM) 85.3% and 77.5% | viability, T/C (compound 0.316 µM) 83.9% and 109% | viability, T/C (compound 1 µM) 90.8% and 89.4% | viability, T/C (compound 3.16 µM) 94.1% and 97.8% | viability, T/C (compound 10 µM) 90.5% and 91.3%

CC(Nc1ccc2c(c1)OCCn1cc(N3C(=O)OCC3C(F)F)nc1-2)C(N)=O (centres undefined)
> 10000 nM: IC50 (curve of compound)
inactive: viability, T/C (compound 0.0316 µM) 99.5% | viability, T/C (compound 0.1 µM) 83.6% | viability, T/C (compound 0.316 µM) 92.9% | viability, T/C (compound 1 µM) 98.5% | viability, T/C (compound 3.16 µM) 92.8% | viability, T/C (compound 10 µM) 102%

NC(=O)C(=Cn1cnc(-c2cc(C(F)(F)F)cc(C(F)(F)F)c2)n1)c1cncnc1
active: viability, T/C (compound 0.949 µM) 6.85% and 2.59% | viability, T/C (compound 3 µM) 1.92% and 0.42%
inactive: viability, T/C (compound 0.00949 µM) 99% and 110% | viability, T/C (compound 0.03 µM) 99.6% and 106% | viability, T/C (compound 0.0949 µM) 111% and 105% | viability, T/C (compound 0.3 µM) 71.5% and 52.6%
436 nM and 319 nM: IC50 (curve of compound)
